Measured values taken from patent publication US12282027B2, “High-throughput NMR approach for in-membrane protein ligand screening” (University of South Florida, priority 2021, dated 2025).

Biological target: T1, A1R receptor (Homo sapiens, UniProt P30542)
T1 construct: FLAG (N); His10 (C); TEV protease cleavage site (N); α-Factor peptide (secretion signal) (N); made in house; host or cells: Pichia pastoris
T1 sequence (P30542 1-326): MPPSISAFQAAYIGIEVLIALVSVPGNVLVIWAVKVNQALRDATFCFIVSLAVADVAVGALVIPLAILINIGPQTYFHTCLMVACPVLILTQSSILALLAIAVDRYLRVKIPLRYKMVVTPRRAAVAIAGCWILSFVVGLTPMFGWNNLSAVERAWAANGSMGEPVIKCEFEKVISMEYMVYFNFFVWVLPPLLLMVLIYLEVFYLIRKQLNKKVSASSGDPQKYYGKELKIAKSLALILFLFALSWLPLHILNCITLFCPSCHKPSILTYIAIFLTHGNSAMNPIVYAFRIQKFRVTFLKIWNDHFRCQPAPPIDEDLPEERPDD
Experiment: In-membrane WaterLOGSY NMR, 10× diluted A1R in yeast cell membrane (YCM)
Type: binding
Settings: 10× diluted A1R in YCM from Pichia pastoris; FIG. 5, FIG. 8
Description: The human A1 receptor and A2A receptor were cloned into pPIC9K with an N-terminal Flag tag and a C-terminal His tag. […] The lysed cell pellets were centrifuged at 9,720×g for 30 min to remove all debris and keep the released membrane fraction parts.
At the end of fermentation, the cell pellets were collected after centrifugation at 4,000×g for 15 min at 4° C. and then washed once with 50 mM HEPES, pH 7.4, 100 mM NaCl buffer. The cell pellets were resuspended into Receptor Lysis Buffer (50 mM HEPES buffer, 10% glycerol, 100 mM NaCl, 2.5 mM EDTA) using the ratio of cell pellets to buffer equal to 1:4. […] The disrupted cell pellets were centrifuged at 9,720×g for 30 min at 4° C. to discard unbroken cells and cellular debris.
NMR samples for membranes typically consisted of 270-300 μL volumes of the cell membrane in 50 mM HEPES buffer, 10% glycerol, 100 mM NaCl, 2.5 mM EDTA, doped with 10% D2O and different concentration ligands prepared in DMSO as needed.
STD and WaterLOGSY experiments were conducted at a ^1H frequency of 600 MHz using Varian Inova spectrometer. 5 mm diameter NMR tubes with a sample volume of 270-300 μL were used in all experiments. Solutions were buffered using a HEPES buffer corrected to pH 7.4 and 10% glycerol. The sample preparation is exemplified as follows, the compound (solution in DMSO-d6), 30 μL D2O was added to 240 μL membrane in an Eppendorf tube. The resulting solution was spun to ensure full mixing and transferred to a 5 mm NMR tube before the run. Both STD and WaterLOGSY spectra were recorded for each sample. WaterLOGSY spectra in the absence of protein receptor were recorded.

Row | Compound | WaterLOGSY NOE signal of the ligand (negative NOE = specific binding)
1 | CTAP | absence of obvious NOE signals
2 | N[C@@H](Cc1ccc(O)c(F)c1)C(=O)O [3-fluorotyrosine] | absence of obvious NOE signals
3 | N[C@@H](Cc1ccc(F)cc1)C(=O)O [4-Fluorophenylalanine] | positive NOEs
